US20240132450A1, “MODULATORS OF G PROTEIN-COUPLED RECEPTOR 88” (ACADIA Pharmaceuticals Inc., priority 2020, published 2024)
Where two headings read alike, the source gives them in different places.

Columns and labels:
[1] = target: hGPR88 receptor (Homo sapiens, UniProt Q9GZN0); experiment: hGPR88-HEK cAMP accumulation assay; details: HEK-293 cells expressing human recombinant GPR88, forskolin 200 nM, High/Medium/Low bands
[2] = Hepatocyte stability (mouse); format: in vitro ADME; details: test compound 3 μM, 60 min; for hepatocyte CLint at 3 μM: mouse, cryopreserved pooled hepatocytes in suspension, read-out: Mouse heps Clint; for Mouse heps Clint: mouse cryopreserved hepatocytes
Experimental: (iii) Hepatocyte Stability (Human, Mouse, Rat or Dog)
Test compound (3 μM) is incubated with cryopreserved hepatocytes in suspension. Samples are removed at 6 time points over the course of a 60 min experiment and test compound is analysed by LC-MS/MS. An intrinsic clearance value (CLint) with standard error and half-life (t %) are calculated. Cryopreserved pooled hepatocytes are stored in liquid nitrogen prior to use. […] The final incubation volume is 500 μL. A control incubation is included for each compound tested where lysed cells are added instead of viable cells. Two control compounds are included with each species.
The reactions are stopped by transferring 50 μL of incubate to 100 μL methanol containing internal standard at the appropriate time points. The control (lysed cells) is incubated for 60 min only. The termination plates are centrifuged at 2500 rpm at 4° C. for 30 min to precipitate the protein. Following protein precipitation, the sample supernatants are combined in cassettes of up to 4 compounds and analysed using generic LC-MS/MS conditions. From a plot of In peak area ratio (compound peak area/internal standard peak area) against time, the gradient of the line is determined. Subsequently, half-life (t %) and intrinsic clearance (CLint) are calculated using the equations below: […]

[3] = target: T1, dopamine uptake transporter (rat DAT) (Rattus norvegicus, UniProt P23977); experiment: Dopamine transporter uptake assay; format: biochemical; details: rat striatum synaptosomes, [3H]dopamine
T1 construct: is determined in rat striatum synaptosomes following [^3H]dopamine scintillation counting; from tissue; host or cells: rat striatum synaptosomes

[4] = read-out: GRP88 agonist activity (EC50)

hGPR88 receptor, sequence (Q9GZN0 whole entry): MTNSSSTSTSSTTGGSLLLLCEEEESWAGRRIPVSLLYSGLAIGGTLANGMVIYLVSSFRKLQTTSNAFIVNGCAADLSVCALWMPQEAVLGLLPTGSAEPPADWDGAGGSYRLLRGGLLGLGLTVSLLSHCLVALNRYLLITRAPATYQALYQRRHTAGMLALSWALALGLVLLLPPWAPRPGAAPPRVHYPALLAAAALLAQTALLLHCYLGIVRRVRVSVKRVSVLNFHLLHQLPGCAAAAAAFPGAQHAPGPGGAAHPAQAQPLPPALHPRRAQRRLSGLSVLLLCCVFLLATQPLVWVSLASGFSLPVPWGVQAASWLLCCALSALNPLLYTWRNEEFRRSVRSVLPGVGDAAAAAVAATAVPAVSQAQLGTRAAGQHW
T1 sequence (P23977 whole entry): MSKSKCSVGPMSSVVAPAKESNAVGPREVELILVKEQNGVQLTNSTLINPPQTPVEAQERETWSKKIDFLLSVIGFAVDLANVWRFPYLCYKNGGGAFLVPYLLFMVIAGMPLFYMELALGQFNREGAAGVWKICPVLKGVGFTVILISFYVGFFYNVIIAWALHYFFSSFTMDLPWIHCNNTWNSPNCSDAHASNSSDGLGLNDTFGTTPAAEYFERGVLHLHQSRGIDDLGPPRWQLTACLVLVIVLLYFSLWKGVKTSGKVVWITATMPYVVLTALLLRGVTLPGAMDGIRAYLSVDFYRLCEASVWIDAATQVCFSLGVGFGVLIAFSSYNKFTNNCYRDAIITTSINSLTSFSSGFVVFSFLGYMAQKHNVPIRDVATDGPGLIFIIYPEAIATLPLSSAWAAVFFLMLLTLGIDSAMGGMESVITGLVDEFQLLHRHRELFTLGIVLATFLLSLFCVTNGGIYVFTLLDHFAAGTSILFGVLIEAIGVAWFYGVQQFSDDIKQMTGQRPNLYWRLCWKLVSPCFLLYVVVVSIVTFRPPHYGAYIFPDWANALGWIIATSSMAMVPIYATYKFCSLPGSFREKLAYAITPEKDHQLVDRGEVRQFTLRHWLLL

SMILES	EC50 ([1]; GRP88 agonist activity (EC50)) [nM]	hepatocyte CLint at 3 μM [2] [µL/min/1e6 cells]	further results
COCc1ccc(-c2ccc(NC(=O)C3CC3c3ccccn3)cc2)cc1 (racemic) [Example 18, N-(4′-(methoxymethyl)-[1,1′-biphenyl]-4-yl)-2-(pyridin-2-yl)cyclopropane-1-carboxamide]	–	–	Inhibition of dopamine uptake transporter (% inhibition at 10 μM compound) ([3]; 10 µM): 0 % inhibition
CCOc1ccc(-c2ccc(NC(=O)C3CC3c3ccccn3)cc2)cn1 (racemic) [Example 36, (rac-trans)-N-(4-(6-ethoxypyridin-3-yl)phenyl)-2-(pyridin-2-yl)cyclopropane-1-carboxamide]	1000 to 5000	–	Mouse heps Clint [2]: 80 μL/min/10^6 cells
COCc1ccc(-c2ccc(NC(=O)C3CC3c3ccccn3)nc2)cc1 (racemic) [Example 45, (rac-trans)-N-(5-(4-(methoxymethyl)phenyl)pyridin-2-yl)-2-(pyridin-2-yl)cyclopropane-1-carboxamide]	–	–	Inhibition of dopamine uptake transporter (% inhibition at 10 μM compound) [3]: 28 % inhibition
CCOc1ccc(-c2ccc(NC(=O)C3CC3c3ccccn3)cc2)cn1 (racemic) [Example 75, (rac-trans)-N-(4-(6-ethoxypyridin-3-yl)phenyl)-2-(pyridin-2-yl)cyclopropane-1-carboxamide]	–	–	Inhibition of dopamine uptake transporter (% inhibition at 10 μM compound) ([3]; 10 µM): 5 % inhibition; EC50 [1, 4]: 1000 to 5000 nM
COCc1ccc(-c2ccc(NC(=O)C3CC3c3ccccn3)nc2)cc1 (racemic) [Example 121, (rac-trans)-N-(5-(4-(methoxymethyl)phenyl)pyridin-2-yl)-2-(pyridin-2-yl)cyclopropane-1-carboxamide]	–	30	EC50 [1, 4]: 1000 to 5000 nM
COCc1ccc([C@]23C[C@](NC(=O)C4CC4c4ccccn4)(C2)C3)nc1 (mixture of isomers) [Example 136, N-(3-(5-(methoxymethyl)pyridin-2-yl)bicyclo[1.1.1]pentan-1-yl)-2-(pyridin-2-yl)cyclopropane-1-carboxamide]	> 5000	–	Inhibition of dopamine uptake transporter (% inhibition at 10 μM compound) [3]: 2 % inhibition
CCCc1ccc([C@]23C[C@](NC(=O)C4CC4c4ccccn4)(C2)C3)nc1 (mixture of isomers) [Example 137, N-(3-(5-propylpyridin-2-yl)bicyclo[1.1.1]pentan-1-yl)-2-(pyridin-2-yl)cyclopropane-1-carboxamide]	1000 to 5000	–	Inhibition of dopamine uptake transporter (% inhibition at 10 μM compound) [3]: 10 % inhibition
O=C(Nc1ccc(-c2ccc(CN3CCOCC3)cc2)cc1)C1CC1c1ccccn1 (single isomer, unassigned) [Example 78, (1R*,2R*)-N-(4′-(morpholinomethyl)-[1,1′-biphenyl]-4-yl)-2-(pyridin-2-yl)cyclopropane-1-carboxamide]	–	–	Inhibition of dopamine uptake transporter (% inhibition at 10 μM compound) [3]: 17 % inhibition
COCc1ccc(-c2ccc(NC(=O)C(C)(C)Oc3ccccn3)cc2)cc1 [Example 7, N-(4′-(methoxymethyl)-[1,1′-biphenyl]-4-yl)-2-methyl-2-(pyridin-2-yloxy)propanamide]	1000 to 5000	46	–
CCCc1ccc(C23CC(NC(=O)C(C)(C)Oc4ccc(F)cc4)(C2)C3)cc1 [Example 9, 2-(4-fluorophenoxy)-2-methyl-N-(3-(4-propylphenyl)bicyclo[1.1.1]pentan-1-yl)propenamide]	1000 to 5000	39	–
COCc1ccc(-c2ccc(N(C)C(=O)C(C)(C)Oc3ccc(F)cc3)cc2)cc1 [Example 13, 2-(4-fluorophenoxy)-N-(4′-(methoxymethyl)-[1,1′-biphenyl]-4-yl)-N,2-dimethylpropanamide]	1000 to 5000	90	–
CN(C)Cc1ccc(-c2ccc(NC(=O)C(C)(C)Oc3ccc(F)cc3)cc2)cc1 [Example 17, N-(4′-((dimethylamino)methyl)-[1,1′-biphenyl]-4-yl)-2-(4-fluorophenoxy)-2-methylpropanamide]	1000 to 5000	37	–
COCc1ccc(-c2ccc3c(c2)CCN3C(=O)C(C)(C)Oc2ccc(F)cc2)cc1 [Example 32, 2-(4-fluorophenoxy)-1-(5-(4-(methoxymethyl)phenyl)indolin-1-yl)-2-methylpropan-1-one]	1000 to 5000	65	–
COCc1ccc([C@]23C[C@](NC(=O)C(C)(C)Oc4ccc(F)cc4)(C2)C3)cc1 [Example 135, 2-(4-fluorophenoxy)-N-(3-(4-(methoxymethyl)phenyl)bicyclo[1.1.1]pentan-1-yl)-2-methylpropanamide]	1000 to 5000	–	Inhibition of dopamine uptake transporter (% inhibition at 10 μM compound) [3]: 8 % inhibition
COCc1ccc(-c2ccc(N(CC(C)(C)O)C(=O)C3CC3c3ccccn3)cc2)cc1 (stereo not shown) [Example 141, N-(2-hydroxy-2-methylpropyl)-N-(4′-(methoxymethyl)-[1,1′-biphenyl]-4-yl)-2-(pyridin-2-yl)cyclopropane-1-carboxamide]	> 5000	–	–
COCc1ccc(-c2ccc(N(CC(C)(C)O)C(=O)C3CC3c3ccccn3)cc2)cc1 (stereo not shown) [Example 142, N-(2-hydroxy-2-methylpropyl)-N-(4′-(methoxymethyl)-[1,1′-biphenyl]-4-yl)-2-(pyridin-2-yl)cyclopropane-1-carboxamide]	–	–	EC50 [1, 4]: > 5000 nM
CCCc1ccc(-c2ccc(N(C[C@@H](N)[C@@H](C)CC)C(=O)[C@@H]3C[C@H]3c3ccccn3)cc2)cc1 [Literature comparative 2, 2-PCCA, reference compound]	–	–	Inhibition of dopamine uptake transporter (% inhibition at 10 μM compound) [3]: 90 % inhibition

Now from value to molecule, other results behind:

EC50 ([1]; GRP88 agonist activity (EC50)) [nM]	hepatocyte CLint at 3 μM [2] [µL/min/1e6 cells]	SMILES	further results
< 1000	55	CCCc1ccc(C23CC(NC(=O)C4CC4c4ccccn4)(C2)C3)cc1 (racemic) [Example 8, (rac-trans)-N-(3-(4-propylphenyl)bicyclo[1.1.1]pentan-1-yl)-2-(pyridin-2-yl)cyclopropane-1-carboxamide]	–
< 1000	–	CCCc1ccc(C23CC(NC(=O)C4CC4c4ccccn4)(C2)C3)cc1 (racemic) [Example 35, (rac-trans)-N-(3-(4-propylphenyl)bicyclo[1.1.1]pentan-1-yl)-2-(pyridin-2-yl)cyclopropane-1-carboxamide]	Mouse heps Clint [2]: 49 μL/min/10^6 cells
< 1000	70	COCc1ccc(-c2ccc(NC(=O)C3CC3c3ccccn3)cc2)cc1 (single isomer, unassigned) [Example 18, N-(4′-(methoxymethyl)-[1,1′-biphenyl]-4-yl)-2-(pyridin-2-yl)cyclopropane-1-carboxamide]	–
< 1000	30	COCc1ccc(-c2ccc(NC(=O)C(C)(C)Oc3ccc(Cl)cc3)cc2)cc1 [Example 3]	–
< 1000	51	COCc1ccc(-c2ccc(NC(=O)C(C)(C)Oc3ccccc3)cc2)cc1 [Example 4, N-(4′-(methoxymethyl)-[1,1′-biphenyl]-4-yl)-2-methyl-2-phenoxypropanamide]	–
< 1000	41	CC(C)(Oc1ccc(F)cc1)C(=O)Nc1ccc(-c2ccc(CN3CCOCC3)cc2)cc1 [Example 25, 2-(4-fluorophenoxy)-2-methyl-N-(4′-(morpholinomethyl)-[1,1′-biphenyl]-4-yl)propenamide]	–
< 1000	–	CN(C)c1ncc(-c2ccc(NC(=O)C(C)(C)Oc3ccc(F)cc3)cc2)cn1 [Example 49, N-(4-(2-(dimethylamino)pyrimidin-5-yl)phenyl)-2-(4-fluorophenoxy)-2-methylpropanamide]	Inhibition of dopamine uptake transporter (% inhibition at 10 μM compound) [3]: 0 % inhibition
< 1000	71	COCc1ccc(-c2ccc(NC(=O)C3(Oc4ccc(F)cc4)CC3)cc2)cc1 [Example 53, 1-(4-fluorophenoxy)-N-(4′-(methoxymethyl)-[1,1′-biphenyl]-4-yl)cyclopropane-1-carboxamide]	–
< 1000	37	COCc1ccc(-c2ccc(NC(=O)C(C)(C)Oc3ccc(C#N)cc3)cc2)cc1 [Example 68, 2-(4-cyanophenoxy)-N-(4′-(methoxymethyl)-[1,1′-biphenyl]-4-yl)-2-methylpropanamide]	–
< 1000	74	CCOc1ccc(OC(C)(C)C(=O)Nc2ccc(-c3ccc(COC)cc3)cc2)cc1 [Example 70, 2-(4-ethoxyphenoxy)-N-(4′-(methoxymethyl)-[1,1′-biphenyl]-4-yl)-2-methylpropanamide]	–
< 1000	–	CN(C)c1ccc(-c2ccc(NC(=O)C(C)(C)Oc3ccc(F)cc3)cc2)cn1 [Example 79, N-(4-(6-(dimethylamino)pyridin-3-yl)phenyl)-2-(4-fluorophenoxy)-2-methylpropanamide]	Inhibition of dopamine uptake transporter (% inhibition at 10 μM compound) [3]: 21 % inhibition
< 1000	47	CC(C)Oc1ccc(-c2ccc(NC(=O)C(C)(C)Oc3ccc(F)cc3)cc2)cn1 [Example 92, 2-(4-fluorophenoxy)-N-(4-(6-isopropoxypyridin-3-yl)phenyl)-2-methylpropanamide]	–
